Test results as given in patent US10392404B2, “Compounds and compositions as kinase inhibitors” (NOVARTIS AG, priority 2014, dated 2019).

Columns and labels:
[1] = molecular target: T1, C-RAF (Homo sapiens, UniProt P04049, Y340E/Y341E); assay: In vitro Raf activity determination (Alpha Screen, biotinylated kinase-dead MEK1 substrate), C-Raf; type: biochemical; conditions: c-Raf approximately 4 nM; ATP 1 μM; pre-incubation 60 minutes; reaction 1 hour at room temperature
T1 construct: His tag (implied by nickel chromatography) (cleaved yes); StrepII tag (cleaved yes); made in house; host or cells: Sf9 insect cells (baculovirus), CRAF and h14-3-3 zeta co-expressed; MEK1 substrate from E. coli
Source text: CRAF cDNA was subcloned as full length protein, with Y340E and Y341E activating mutations, into a baculovirus expression vector for Sf9 insect cell expression. h14-3-3 zeta cDNA was subcloned into a baculovirus expression vector for SF9 insect cell expression. Sf9 cells co-expressing both proteins were lysed and subjected to immobilized nickel chromatography and eluted with Imidazole. A second column (StrepII binding column) was used and eluted with desthiobiotin. Protein Tags were removed using Prescission enzyme and the protein was further purified using a flowthrough step to remove tags.
C-Raf TR refers to a truncated C-Raf protein, a Δ1-324 deletion mutant. C-Raf FL refers to the full-length C-Raf protein.
(§1) Full length MEK1 with an inactivating K97R ATP binding site mutation is utilized as a RAF substrate. The MEK1 cDNA was subcloned with an N-terminal (his)6 tag into a vector for E. Coli expression. The MEK1 substrate was purified from E. Coli lysate by nickel affinity chromatography followed by anion exchange. The final MEK1 preparation was biotinylated (Pierce EZ-Link Sulfo-NHS-LC-Biotin) and concentrated.
(§2) Assay Materials: Assay buffer is 50 mM Tris, pH 7.5, 15 mM MgCl2, 0.01% Bovine Serum Albumin (BSA) and 1 mM dithiothreitol (DTT); Stop buffer is 60 mM ethylenediaminetetraacetic acid (EDTA) and 0.01% Tween® 20; b-Raf (V600E), active; biotinylated Mek, kinase dead; Alpha Screen detection kit (available from PerkinElmer™, #6760617R); Anti phospho-MEK1/2 (available from Cell Signaling Technology, Inc. #9121); 384 well low volume assay plates (White Greiner® plates).
(§3) Assay conditions: b-Raf (V600E) approximately 4 pM; c-Raf approximately 4 nM; biotinylated Mek, kinase dead approximately 10 nM; ATP 10 μM for BRAF (V600E) and 1 μM for CRAF; Pre-incubation time with compounds 60 minutes at room temperature; Reaction time 1 or 3 hours at room temperature.
(§4) Assay protocol: Raf and biotinylated Mek (kinase dead) were combined at 2× final concentrations in assay buffer (50 mM Tris, pH 7.5, 15 mM MgCl2, 0.01% BSA and 1 mM DTT) and dispensed […] per well in assay plates (Greiner white 384 well assay plates #781207) containing […] of 40× of a Raf kinase inhibitor test compound diluted in 100% DMSO. The plate was incubated for 60 minutes at room temperature. The Raf kinase activity reaction was started by the addition of […] per well of 2×ATP diluted in assay buffer. After 3 hours (b-Raf(V600E)) or 1 hour (c-Raf). The reactions were stopped and the phosphorylated product was measured using a rabbit anti-p-MEK (Cell Signaling, #9121) antibody and the Alpha Screen IgG (ProteinA) detection Kit (PerkinElmer #6760617R), by the addition of […] to the well of a mixture of the antibody (1:2000 dilution) and detection beads (1:2000 dilution of both beads) in Stop/bead buffer (25 mM EDTA, 50 mM Tris, pH 7.5, 0.01% Tween20). The additions were carried out under dark conditions to protect the detection beads from light. A lid was placed on top of the plate and incubated for 1 hour at room temperature, after which the luminescence was read on a PerkinElmer Envision instrument. The concentration of each compound for 50% inhibition (IC50) was calculated by non-linear regression using XL Fit data analysis software.

[2] = molecular target: T2, b-Raf (V600E) (Homo sapiens, UniProt P15056, V600E); assay: In vitro Raf activity determination (Alpha Screen, biotinylated kinase-dead MEK1 substrate), B-Raf; type: biochemical; conditions: b-Raf (V600E) approximately 4 pM; ATP 10 μM; pre-incubation 60 minutes; reaction 3 hours at room temperature
T2 construct: made in house
Procedure: as §1, §2, §3, §4

T2 sequence (P15056 whole entry V600E): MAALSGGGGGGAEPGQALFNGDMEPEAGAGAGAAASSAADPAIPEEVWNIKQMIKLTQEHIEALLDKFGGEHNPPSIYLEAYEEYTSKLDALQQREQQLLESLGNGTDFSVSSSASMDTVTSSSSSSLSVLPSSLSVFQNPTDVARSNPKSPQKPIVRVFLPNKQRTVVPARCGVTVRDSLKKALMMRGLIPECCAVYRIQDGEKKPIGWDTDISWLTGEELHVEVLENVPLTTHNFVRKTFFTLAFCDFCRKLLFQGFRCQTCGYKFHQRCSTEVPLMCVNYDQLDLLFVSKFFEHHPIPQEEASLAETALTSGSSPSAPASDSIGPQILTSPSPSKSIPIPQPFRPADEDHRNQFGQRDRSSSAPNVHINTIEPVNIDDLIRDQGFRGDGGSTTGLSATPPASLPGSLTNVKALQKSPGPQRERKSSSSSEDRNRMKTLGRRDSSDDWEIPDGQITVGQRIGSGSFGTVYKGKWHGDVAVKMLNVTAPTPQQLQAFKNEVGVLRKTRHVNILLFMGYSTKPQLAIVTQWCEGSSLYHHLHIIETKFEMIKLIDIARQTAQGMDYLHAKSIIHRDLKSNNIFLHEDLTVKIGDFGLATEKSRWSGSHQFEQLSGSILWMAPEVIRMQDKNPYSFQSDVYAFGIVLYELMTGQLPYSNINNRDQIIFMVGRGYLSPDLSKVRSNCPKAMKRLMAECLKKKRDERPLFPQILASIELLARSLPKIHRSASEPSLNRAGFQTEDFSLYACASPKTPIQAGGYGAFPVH
T1 sequence (P04049 whole entry Y340E/Y341E): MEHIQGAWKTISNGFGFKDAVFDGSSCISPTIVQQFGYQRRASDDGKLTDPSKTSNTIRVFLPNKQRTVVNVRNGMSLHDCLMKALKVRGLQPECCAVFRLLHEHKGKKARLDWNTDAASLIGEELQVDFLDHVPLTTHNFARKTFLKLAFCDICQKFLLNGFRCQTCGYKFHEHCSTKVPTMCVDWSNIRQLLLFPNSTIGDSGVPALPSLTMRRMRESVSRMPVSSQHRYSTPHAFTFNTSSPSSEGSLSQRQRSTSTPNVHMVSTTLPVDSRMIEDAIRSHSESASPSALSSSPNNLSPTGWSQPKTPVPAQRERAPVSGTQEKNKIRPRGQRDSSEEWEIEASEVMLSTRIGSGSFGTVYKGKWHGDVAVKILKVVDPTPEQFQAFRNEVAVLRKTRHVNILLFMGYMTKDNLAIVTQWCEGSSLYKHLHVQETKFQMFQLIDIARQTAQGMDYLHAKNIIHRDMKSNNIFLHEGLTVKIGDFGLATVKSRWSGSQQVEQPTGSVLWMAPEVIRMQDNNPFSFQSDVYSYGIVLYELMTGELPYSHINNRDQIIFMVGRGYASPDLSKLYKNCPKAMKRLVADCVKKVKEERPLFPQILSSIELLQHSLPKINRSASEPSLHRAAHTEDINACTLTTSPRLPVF
T1 sequence (P63104 whole entry partner): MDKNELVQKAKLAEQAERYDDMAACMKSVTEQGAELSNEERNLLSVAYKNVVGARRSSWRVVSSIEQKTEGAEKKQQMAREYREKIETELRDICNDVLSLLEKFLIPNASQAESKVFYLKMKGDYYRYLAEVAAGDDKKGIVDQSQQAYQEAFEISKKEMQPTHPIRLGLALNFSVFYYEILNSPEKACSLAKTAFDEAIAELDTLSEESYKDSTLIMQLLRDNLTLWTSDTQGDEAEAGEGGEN

Row | SMILES | IC50 [1] [nM] | IC50 [2] [nM]
1 | Cc1ccc(NC(=O)c2ccnc(C(F)(F)F)c2)cc1-c1cnc(NC2CCOCC2)c(C#N)c1 [Example 61, N-(3-(5-cyano-6-((tetrahydro-2H-pyran-4-yl)amino)pyridin-3-yl)-4-methylphenyl)-2-(trifluoromethyl) isonicotinamide] | 0.194 | 0.509
2 | Cc1ccc(NC(=O)c2ccnc(C(F)(F)F)c2)cc1-c1cnc(N2CC(O)C2)c(C#N)c1 [Example 63, N-(3-(5-cyano-6-(3-hydroxyazetidin-1-yl)pyridin-3-yl)-4-methylphenyl)-2-(trifluoromethyl) isonicotinamide] | 0.121 | 0.488
3 | Cc1ncc(NC(=O)c2ccnc(C(C)(C)C#N)c2)cc1-c1cnc(N2CCOCC2)c(C#N)c1 [Example 64, N-(5′-cyano-2-methyl-6′-morpholino-[3,3′-bipyridin]-5-yl)-2-(2-cyanopropan-2-yl)isonicotinamide] | 0.832 | 3.7
4 | Cc1ncc(NC(=O)c2ccnc(C(C)(C)C#N)c2)cc1-c1cnc(N2CC(O)C2)c(C#N)c1 [Example 65, N-(5′-cyano-6′-(3-hydroxyazetidin-1-yl)-2-methyl-[3,3′-bipyridin]-5-yl)-2-(2-cyanopropan-2-yl)isonicotinamide] | 2.7 | 14.5
5 | Cc1ncc(NC(=O)c2cccc(C(F)(F)F)c2)cc1-c1cnc(N2CCOCC2)c(C#N)c1 [Example 66, N-(5′-cyano-2-methyl-6′-morpholino-[3,3′-bipyridin]-5-yl)-3-(trifluoromethyl) benzamide] | 0.203 | 0.852
6 | Cc1ncc(NC(=O)c2cccc(C(F)(F)F)c2)cc1-c1cnc(N2CC(O)C2)c(C#N)c1 [Example 67, N-(5′-cyano-6′-(3-hydroxyazetidin-1-yl)-2-methyl-[3,3′-bipyridin]-5-yl)-3-(trifluoromethyl) benzamide] | 0.225 | 1.24
7 | Cc1ncc(NC(=O)c2ccnc(C(F)(F)F)c2)cc1-c1cnc(N2CCOCC2)c(C#N)c1 [Example 68, N-(5′-cyano-2-methyl-6′-morpholino-[3,3′-bipyridin]-5-yl)-2-(trifluoromethyl) isonicotinamide] | 0.223 | 0.902
8 | Cc1ncc(NC(=O)c2ccnc(C(F)(F)F)c2)cc1-c1cnc(N2CC(O)C2)c(C#N)c1 [Example 69, N-(5′-cyano-6′-(3-hydroxyazetidin-1-yl)-2-methyl-[3,3′-bipyridin]-5-yl)-2-(trifluoromethyl) isonicotinamide] | 0.46 | 2.56
9 | Cc1ncc(NC(=O)c2ccnc(C(C)(C)C#N)c2)cc1-c1cnc(N2CCNCC2)c(C#N)c1 [Example 71, N-(5′-cyano-2-methyl-6′-(piperazin-1-yl)-[3,3′-bipyridin]-5-yl)-2-(2-cyanopropan-2-yl)isonicotinamide] | 1.97 | 4.03
10 | Cc1ncc(NC(=O)c2ccnc(C(C)(C)C#N)c2)cc1-c1cnc(NC2CCOCC2)c(C#N)c1 [Example 72, N-(5′-cyano-2-methyl-6′-((tetrahydro-2H-pyran-4-yl)amino)-[3,3′-bipyridin]-5-yl)-2-(2-cyanopropan-2-yl)isonicotinamide] | 1.53 | 6.47
11 | Cc1ncc(NC(=O)c2ccnc(C(C)(C)C#N)c2)cc1-c1cnc(N2CCCC2)c(C#N)c1 [Example 73, N-(5′-cyano-2-methyl-6′-(pyrrolidin-1-yl)-[3,3′-bipyridin]-5-yl)-2-(2-cyanopropan-2-yl)isonicotinamide] | 2.09 | 8.66
12 | Cc1ncc(NC(=O)c2ccnc(C(C)(C)C#N)c2)cc1-c1cnc(N2CCO[C@@H](C)C2)c(C#N)c1 [Example 74, (S)-N-(5′-cyano-2-methyl-6′-(2-methylmorpholino)-[3,3′-bipyridin]-5-yl)-2-(2-cyanopropan-2-yl)isonicotinamide] | 1.64 | 5.54
13 | Cc1ncc(NC(=O)c2ccnc(C(C)(C)C#N)c2)cc1-c1cnc(N2CCO[C@H](C)C2)c(C#N)c1 [Example 75, (R)-N-(5′-cyano-2-methyl-6′-(2-methylmorpholino)-[3,3′-bipyridin]-5-yl)-2-(2-cyanopropan-2-yl)isonicotinamide] | 1.2 | 3.79
14 | Cc1ncc(NC(=O)c2ccnc(C(C)(C)C#N)c2)cc1-c1cnc(N2CCC2)c(C#N)c1 [Example 76, N-(6′-(azetidin-1-yl)-5′-cyano-2-methyl-[3,3′-bipyridin]-5-yl)-2-(2-cyanopropan-2-yl)isonicotinamide] | 1.53 | 9.01
15 | Cc1ncc(NC(=O)c2ccnc(C(C)(C)C#N)c2)cc1-c1cnc(NC2CCOC2)c(C#N)c1 (stereo not shown) [Example 77, N-(5′-cyano-2-methyl-6′-((tetrahydrofuran-3-yl)amino)-[3,3′-bipyridin]-5-yl)-2-(2-cyanopropan-2-yl)isonicotinamide] | 2.53 | 9.28
16 | Cc1ncc(NC(=O)c2ccnc(C(C)(C)C#N)c2)cc1-c1cnc(N2CCOC[C@H]2C)c(C#N)c1 [Example 79, (R)-N-(5′-cyano-2-methyl-6′-(3-methylmorpholino)-[3,3′-bipyridin]-5-yl)-2-(2-cyanopropan-2-yl)isonicotinamide] | 1.51 | 4.34

Other lines, results leading:

Row | IC50 [1] [nM] | IC50 [2] [nM] | SMILES
17 | 0.367 | 1.08 | Cc1ccc(NC(=O)c2ccnc(C(C)(C)C#N)c2)cc1-c1cnc(NC2CCOCC2)c(C#N)c1 [Example 60, N-(3-(5-cyano-6-((tetrahydro-2H-pyran-4-yl)amino)pyridin-3-yl)-4-methylphenyl)-2-(2-cyanopropan-2-yl)isonicotinamide]
18 | 0.158 | 0.477 | Cc1ccc(NC(=O)c2ccnc(C(F)(F)F)c2)cc1-c1cnc(N2CCOCC2)c(C#N)c1 [Example 62, N-(3-(5-cyano-6-morpholinopyridin-3-yl)-4-methylphenyl)-2-(trifluoromethyl) isonicotinamide]
19 | 0.418 | 0.994 | Cc1ncc(NC(=O)c2ccnc(C(F)(F)F)c2)cc1-c1cnc(N2CCNCC2)c(C#N)c1 [Example 70, N-(5′-cyano-2-methyl-6′-(piperazin-1-yl)-[3,3′-bipyridin]-5-yl)-2-(trifluoromethyl) isonicotinamide]
20 | 1.93 | 12.6 | Cc1ncc(NC(=O)c2ccnc(C(C)(C)C#N)c2)cc1-c1cnc(NC2COC2)c(C#N)c1 [Example 80, N-(5′-cyano-2-methyl-6′-(oxetan-3-ylamino)-[3,3′-bipyridin]-5-yl)-2-(2-cyanopropan-2-yl)isonicotinamide]
21 | 15.1 | 90.6 | Cc1ncc(NC(=O)c2ccnc(C(C)(C)C#N)c2)cc1-c1cnc(-n2ccnc2C)c(C#N)c1 [Example 81, N-(5′-cyano-2-methyl-6′-(2-methyl-1H-imidazol-1-yl)-[3,3′-bipyridin]-5-yl)-2-(2-cyanopropan-2-yl)isonicotinamide]
22 | 2.04 | 10.8 | Cc1ncc(NC(=O)c2ccnc(C(C)(C)C#N)c2)cc1-c1cnc(NC2CC2)c(C#N)c1 [Example 82, N-(5′-cyano-6′-(cyclopropylamino)-2-methyl-[3,3′-bypyridin]-5-yl)-2-(2-cyanopropan-2-yl)isonicotinamide]
23 | 4.89 | 23.7 | Cc1ccn(-c2ncc(-c3cc(NC(=O)c4ccnc(C(C)(C)C#N)c4)cnc3C)cc2C#N)n1 [Example 83, N-(5′-cyano-2-methyl-6′-(3-methyl-1H-pyrazol-1-yl)-[3,3′-bipyridin]-5-yl)-2-(2-cyanopropan-2-yl)isonicotinamide]
